Laboratory results as given in patent US5262433A, “Tetrazoleacetic acid derivatives and method of aldose reductase inhibition therewith” (Wakamoto Pharmaceutical Co., Ltd., priority 1991, dated 1993).

Experiments:
[1] = biological target: T1, aldose reductase (Rattus norvegicus, UniProt P07943); experiment: Aldose Reductase Inhibition Test; format: biochemical, rat (male SD rats, crystalline lenses); conditions: rat lens enzyme; DL-glyceraldehyde 10 mM, pH 6.2, 30° C., 5 minutes
T1 construct: crystalline lenses were immediately removed and stored at -80° C; from tissue; host or cells: crystalline lenses of six-week-old male SD rats
Protocol: Six-week-old male SD rats were anesthetized with ether and killed. The their crystalline lenses were immediately removed and stored at -80° C. The lenses were homogenized in 3 volumes of 135 mM sodium potassium phosphate buffer (pH 7.0) and centrifuged at 30,000 rpm for 30 minutes. The resulting supernatant was dialyzed overnight against 0.05M sodium chloride solution to obtain an aldose reductase solution. All operations were conducted at 4° C. and the enzyme solution was stored at -80° C.
The activity of aldose reductase was determined according to a partially modified method of J. H. Kinoshita et al. (J. Biol. Chem., 1965, 240, p. 877). More specifically, 0.1 ml of DL-glyceraldehyde (final concentration: 10 mM) was added to 0.9 ml of 100 mM sodium potassium phosphate buffer (pH 6.2) which contained lithium sulfate (final concentrationL 400 mM), reduced nicotinamide adenine dinucleotide phosphate (final concentration: 0.15 mM), the enzyme solution, and the compound to be evaluated (final concentration: 10^-5 M, 10^-6 M, 10^-7 M or 10^-8 M), and then the reaction was conducted at 30° C. for 5 minutes. During the reaction, the change in the absorbance at 340 nm with time was monitored.
The maximum reducing rate of the absorbance (U) during the reaction was determined. By subtracting, from this value, the maximum reducing rate (U0) at 340 nm of the reaction solution before the addition of the substrate (DL-glyceraldehyde), the reaction rate (V=U-U0) was calculated as a true reaction rate in the presence of the compound to be tested.
The same procedure was repeated except for the absence of the compound to be tested. A true reaction rate (V0) in case the enzyme was not inhibited was calculated (V0 =U^1 -U0^1). The aldose reductase inhibitory activity of the test compounds was determined according to the following formula:
Rate of Inhibition (%)=(V0 -V)/V0 ×100
The concentration of inhibitor giving 50% inhibition of enzyme activity (IC50) was estimated from the least-square regression line of the log dose-response curve.

[2] = system: sorbitol accumulation in sciatic nerve; experiment: Inhibitory activity test against sorbitol accumulation in sciatic nerve of streptozotocin diabetic rats; format: in vivo, rat (Sprague-Dawley); conditions: for Rate of Inhibition of Sorbitol Accumulation, Sciatic nerve, 10 mg/kg: 10 mg/kg oral once a day for 5 days; for Rate of Inhibition of Sorbitol Accumulation, Sciatic nerve, 100 mg/kg: 100 mg/kg oral once a day for 5 days; for Rate of Inhibition of Sorbitol Accumulation in Sciatic Nerve (10 mg/kg): comparative compounds III (Table 4)
Protocol: (§1) Groups of 6 to 8-week-old Sprague-Dawley male rats (4 animals per group) were fasted for 18 hours and streptozotocin was injected through the tail vein in a dose of 60 mg/kg, to obtain diabetic rats.
(§2) Immediately after the administration of streptozotocin, each compound to be tested was orally administered to these rats in the form of a suspension at a dose of 5 mg/kg, 10 mg/kg and 100 mg/kg (each was suspended in a 0.5% sodium carboxymethyl cellulose solution) once a day (at 9 a.m.) for 5 days.
(§3) During the test, the rats took diet and drank water freely. Four hours after the final administration of the drug in the 5th day's morning (at 9 a.m.), the rats were sacrificed and then the sciatic nerve and lens were removed to determine the amounts of sorbitol accumulated therein.
(§4) The results are expressed in the percentage obtained when the value obtained on the control to which no drug was administered is defined 100.

[3] = system: sorbitol accumulation in lens; experiment: Inhibitory activity test against sorbitol accumulation in lens of streptozotocin diabetic rats; format: in vivo, rat (Sprague-Dawley); conditions: 100 mg/kg oral once a day for 5 days, STZ diabetic rats
Protocol: as §1, §2, §3, §4

[4] = sciatic nerve, STZ diabetic rats

In the case of O=C(Cn1nnnc1-c1ccsc1)OCCO [Example 1, [5-(3-thienyl)tetrazol-1-yl] acetic acid 2-hydroxyethyl ester], the IC50 [1] is reported as 360 nM, the sorbitol accumulation rate [2] is reported as 73% and the “Rate of Inhibition of Sorbitol Accumulation, Sciatic nerve, 5 mg/kg” value (“Rate of Inhibition … 5 mg/kg” for short) ([2]; po, 5 mg/kg, 120 h) is reported as 48%. For the same compound, the “Rate of Inhibition of Sorbitol Accumulation, Sciatic nerve, 10 mg/kg” value (shortened to “Rate of Inhibition … Sciatic nerve, 10 mg/kg”) [2, 4] was 73%, the “Rate of Inhibition of Sorbitol Accumulation, Sciatic nerve, 100 mg/kg” value (“Rate of Inhibition … Sciatic nerve, 100 mg/kg” for short) [2, 4] was 102% and the “Rate of Inhibition of Sorbitol Accumulation, lens, 100 mg/kg” value (“Rate of Inhibition … lens, 100 mg/kg” for short) [3] was 50%.
For O=C(Cn1nnnc1-c1ccccc1)OCCO [Example 6, (5-phenyltetrazol-1-yl) acetic acid 2-hydroxyethyl ester], the IC50 [1] was 3100 nM, the “Rate of Inhibition … 5 mg/kg” value ([2]; po, 5 mg/kg, 120 h) was 29% and the “Rate of Inhibition … Sciatic nerve, 10 mg/kg” value [2, 4] was 46%. For the same compound, the “Rate of Inhibition … Sciatic nerve, 100 mg/kg” value [2, 4] was 103% and the “Rate of Inhibition … lens, 100 mg/kg” value [3] was 24%.
O=C(Cn1nnnc1-c1ccoc1)OCCO [Example 12, [5-(3-furyl)tetrazol-1-yl] acetic acid 2-hydroxyethyl ester] was tested, and the IC50 [1] was 360 nM, the “Rate of Inhibition … 5 mg/kg” value ([2]; po, 5 mg/kg, 120 h) was 41% and the “Rate of Inhibition … Sciatic nerve, 10 mg/kg” value [2, 4] was 70%. For the same compound, the “Rate of Inhibition … Sciatic nerve, 100 mg/kg” value [2, 4] was 107% and the “Rate of Inhibition … lens, 100 mg/kg” value [3] was 68%.
With O=C(Cn1nnnc1-c1ccsc1)OCCCO [Example 15, [5-(3-thienyl)tetrazol-1-yl]acetic acid 3-hydroxypropyl ester] the “Rate of Inhibition … 5 mg/kg” value ([2]; po, 5 mg/kg, 120 h) was 24%, the “Rate of Inhibition … Sciatic nerve, 10 mg/kg” value [2, 4] was 37% and the “Rate of Inhibition … Sciatic nerve, 100 mg/kg” value [2, 4] was 110%. The “Rate of Inhibition … lens, 100 mg/kg” value [3] was 36%.
In the case of O=C(Cn1nnnc1-c1ccsc1)OCCCCO [Example 16, [5-(3-thienyl)tetrazol-1-yl]acetic acid 4-hydroxybutyl ester], the IC50 [1] is reported as 390 nM, the “Rate of Inhibition … 5 mg/kg” value ([2]; po, 5 mg/kg, 120 h) is reported as -5% and the “Rate of Inhibition … Sciatic nerve, 10 mg/kg” value [2, 4] is reported as 35%. For the same compound, the “Rate of Inhibition … Sciatic nerve, 100 mg/kg” value [2, 4] was 103% and the “Rate of Inhibition … lens, 100 mg/kg” value [3] was -10%.
In the case of O=C(Cn1nnnc1-c1ccsc1)OCCCCCO [Example 18, [5-(3-thienyl)tetrazol-1-yl]acetic acid 5-hydroxypentyl ester], the IC50 [1] is reported as 1300 nM, the “Rate of Inhibition … 5 mg/kg” value ([2]; po, 5 mg/kg, 120 h) is reported as -27% and the “Rate of Inhibition … Sciatic nerve, 10 mg/kg” value [2, 4] is reported as 16%. The “Rate of Inhibition … Sciatic nerve, 100 mg/kg” value [2, 4] was 102% and the “Rate of Inhibition … lens, 100 mg/kg” value [3] was 7%.
For COCCOC(=O)Cn1nnnc1-c1ccsc1 [Example 19, [5-(3-thienyl)tetrazol-1-yl]acetic acid 2-methoxyethyl ester], the IC50 [1] was 210 nM, the “Rate of Inhibition … 5 mg/kg” value ([2]; po, 5 mg/kg, 120 h) was 22% and the “Rate of Inhibition … Sciatic nerve, 10 mg/kg” value [2, 4] was 38%. For the same compound, the “Rate of Inhibition … Sciatic nerve, 100 mg/kg” value [2, 4] was 103% and the “Rate of Inhibition … lens, 100 mg/kg” value [3] was 13%.
In the case of CC(/C=C1\SC(=S)N(CC(=O)O)C1=O)=C\c1ccccc1 [ONO-2235, (E)-3-carboxymethyl-5-[(2E)-methyl-30 phenylpropenylidene]rhodan, reference compound], the “Rate of Inhibition … 5 mg/kg” value ([2]; sciatic nerve, 5 mg/kg oral once a day for 5 days, STZ diabetic rats) is reported as 0%, the “Rate of Inhibition … Sciatic nerve, 10 mg/kg” value [2, 4] is reported as 0% and the “Rate of Inhibition … Sciatic nerve, 100 mg/kg” value [2, 4] is reported as 40%.
CCOC(=O)Cn1nnnc1-c1ccsc1 [compound 2, reference compound] showed a sorbitol accumulation rate [2] of 63%.
With O=C(O)Cn1nnnc1-c1ccsc1 [reference compound] the “Rate of Inhibition of Sorbitol Accumulation in Sciatic Nerve (10 mg/kg)” value (“Rate of Inhibition … (10 mg/kg)” for short) ([2]; sciatic nerve) was 53%.
“[5-(2-methylthio-3-thienyl)tetrazol-1-yl]acetic acid 2-hydroxyethyl ester [Example 2]” was tested, and the “Rate of Inhibition … (10 mg/kg)” value ([2]; sciatic nerve) was 63%.
For “[5-(2-thienyl)tetrazol-1-yl] acetic acid 2-hydroxyethyl ester [Example 3]”, the “Rate of Inhibition … (10 mg/kg)” value ([2]; sciatic nerve) was 35%.
In the case of “[5-[5-(3-phenylpropyl)-2-thienyl]tetrazol-1-yl]acetic acid 2-hydroxyethyl ester [Example 5]”, the “Rate of Inhibition … (10 mg/kg)” value ([2]; sciatic nerve) is reported as 40%.
For “[5-[(3-methylsulfonylamino)-2-thienyl]tetrazol-1-yl] acetic acid 2-hydroxyethyl ester [Example 4]”, the “Rate of Inhibition … (10 mg/kg)” value ([2]; sciatic nerve) was 40%.
